System: R. pulicis
Format: cell-based, Rickettsia pulicis

## CC[C@H]1OC(=O)[C@H](C)[C@@H](O[C@H]2C[C@@](C)(OC)[C@@H](O)[C@H](C)O2)[C@H](C)[C@@H](O[C@@H]2O[C@H](C)C[C@H](N(C)C)[C@H]2O)[C@](C)(O)C[C@@H](C)C(=O)[C@H](C)[C@@H](O)[C@]1(C)O [Erythromycin]
  resistance/sensitivity of the isolate to the antibiotic: resistant
